This note sets out measurements from patent US8686187B2, “Ethoxy diphenyl ethane derivatives, preparation processes and uses thereof” (Shanghai Ecust Biomedicine Co., Ltd., priority 2008, dated 2014).

Read-outs that look alike come from different tables or passages of the source.

For series [1], the system named is S180 sarcoma transplanted tumor. As to the kind of experiment: Tumor-inhibiting rate experiment, intravenous injection, S180 sarcoma transplanted tumor in mice. The following applies: for Tumor-inhibiting rate (%): d0-d12 seven times, tumor weight; for tumor volume observation in drug administered group: around the eighth day after drug administration. It is filed as in vivo. The procedure: After 1 week for adaptation, mice are subcutaneously inoculated with S180 sarcoma tissues and randomly grouped after the tumor grows as much as the area of 100 to 300 mm^3; every compound is used for 6 mice in drug administered group and for 12 mice in control group, the administration doses are as below: 25, 50 mg/kg of ECB1P, ECB1GN hydrochloride, ECB1SN hydrochloride and positive controls ECA4P, ECA4GN hydrochloride, as well as 50, 100 mg/kg of positive controls CB1GA hydrochloride, CB1P and CA4P, the administration is given intravenously on Day d0, d2, d4, d6, d8, d10 and d12, seven times in total, measurement of tumor volume, mice weighing and data recording are performed three times every week, the mice are executed on the fourtheenth day after inoculation, tumor tissues are weighed to calculate the tumor-inhibiting rate, tumor weight inhibiting rate %=(1−average tumor weight in treatment group/average tumor weight in control group)×100%.

For another series, the system named is Kunming mice. As to the kind of experiment: Acute toxicity test of single mice intraperitoneal injection. It is filed as in vivo. The following applies: for LD50: 14 days observation. The protocol: Kunming mice (half-and-half male and female, 17 to 22 grams heavy) are randomly grouped according to weights thereof, and during the test, the mice are divided, based on the proportion of 0.9, into 10 dose groups with each including 10 mice and having the maximal dose of 1500 mg/kg, the tested drugs having the respective doses of 1500, 1350, 1215, 1093, 984, 885, 797, 717, 645 and 581 mg/kg are administered in a manner of single intraperitoneal injection, mice observation and death rate recording are respectively performed once 0.25 h, 0.5 h, 1 h, 2 h, 4 h and 24 h after the drug administration, afterwards, everyday mice observation and death rate recording are performed for 14 days, the mice that are not dead are executed on the fifteenth day and are subjected to pathological anatomy.

The subject of series [2] is Human umbilical vein endothelial cell (HUVEC). As to the kind of experiment: Proliferation inhibition of human umbilical vein endothelial cells (SRB). It is filed as cell-based.
Series [3] relates to Non-small cell lung cancer cell NCl-H292. As to the kind of experiment: Antitumor activity evaluation for in vitro cultured tumor cells (SRB). Format: cell-based.
For another series, the system named is Liver cancer Bel-7402. Described as above. It is filed as cell-based.
For the next series, the system named is Gastric cancer SGC-7901. The description is as above. Format: cell-based.
Series [4] relates to Human colorectal cancer cell HT-29. Described as above. The following applies: for times stronger than positive control CB1: colorectal cancer HT-29. Format: cell-based.
The mark [5] stands for this setting: NCl-H292, 48 hours, SRB, read-out: IC50.
Setting [6] is: Bel-7402, 48 hours, SRB, read-out: IC50.
[7] abbreviates: SGC-7901, 48 hours, SRB, read-out: IC50.
Setting [8] is: HT-29, 48 hours, SRB, read-out: IC50.

With “3,4,5-trimethoxy-3′-glycylamino-4′-ethoxydiphenylethane [CB1GN hydrochloride]”, the “Tumor-inhibiting rate (%)” value in series [1] (50 mg/kg intravenously) is on record as 26%.
“3,4,5-trimethoxy-3′-glycylamino-4′-ethoxydiphenylethane [ECB1GN hydrochloride]”: in the series on Kunming mice, the “toxicity compared with positive controls” value was “toxicity lower than ethoxydiphenylethylene positive control compounds ECA4P and ECA4GN hydrochloride”; the LD50 is recorded as 1012 mg/kg. Moreover, the “Tumor-inhibiting rate (%)” value in series [1] (25 mg/kg intravenously) is given as 40%. Besides, the “tumor volume observation in drug administered group” value (shortened to “tumor volume observation”) in series [1] was “tendency of tumor shrinkage”.
As for “3,4,5-trimethoxy-4′-ethoxydiphenylethane-3′-o-disodium phosphate salt [ECB1P]”, in the series on Kunming mice, the “toxicity compared with positive controls” value was “toxicity lower than ethoxydiphenylethylene positive control compounds ECA4P and ECA4GN hydrochloride”; the LD50 worked out at 1056 mg/kg. Further, the “Tumor-inhibiting rate (%)” value in series [1] (25 mg/kg intravenously) is on record as 42%. In addition, in series [1], the “tumor volume observation” value is “tendency of tumor shrinkage”.
In the series with Kunming mice, “3,4,5-trimethoxy-4′-methoxydiphenylethane3′-o-disodium phosphate salt [CB1P]” gave an LD50 of 1228 mg/kg. Besides, in series [1] (50 mg/kg intravenously), the “Tumor-inhibiting rate (%)” value is given as 28%.
As for `COc1ccc(/C=C\c2cc(OC)c(OC)c(OC)c2)cc1O` [CA4, (Z)-3,4,5-trimethoxy-3′-hydroxy-4′-methoxydiphenylethylene], the IC50 in series [2] (48 hours, SRB, read-out: IC50) is 4.8 nM; in series [2] (Homo sapiens, 48 h, SRB, read-out: IC50), 4.8 to 7.7 nM; in series [3] (setting [5]), 2400 nM; in the series on Liver cancer Bel-7402 (Homo sapiens, Bel-7402, 48 hours, SRB, read-out: IC50), 830 nM; in the series on Gastric cancer SGC-7901 (Homo sapiens, SGC-7901, 48 hours, SRB, read-out: IC50), 3.6 nM; in series [4] (Homo sapiens, HT-29, 48 hours, SRB, read-out: IC50), 21 nM.
Take `COc1ccc(CCc2cc(OC)c(OC)c(OC)c2)cc1O` [CB1, 3,4,5-trimethoxy-3′-hydroxy-4′-methoxydiphenylethane]: the IC50 in series [2] (48 hours, SRB, read-out: IC50) was 5.6 nM; in series [3] (setting [5]), 2800 nM; in the series with Liver cancer Bel-7402 (setting [6]) it was 1700 nM; with Gastric cancer SGC-7901 (setting [7]), 4.2 nM; in series [4] (setting [8]), 35 nM.
With `COc1ccc(CCc2cc(OC)c(OC)c(OC)c2)cc1N` [CB1N, 3,4,5-trimethoxy-3′-amino-4′-methoxydiphenylethane], the IC50 in series [2] (48 hours, SRB, read-out: IC50) is 7.7 nM; in series [3] (setting [5]), 3000 nM; with Liver cancer Bel-7402 (setting [6]), 2500 nM; with Gastric cancer SGC-7901 (setting [7]) it was 4.8 nM; in series [4] (setting [8]), 39 nM.
With `CCOc1ccc(/C=C\c2cc(OC)c(OC)c(OC)c2)cc1O` [ECA4, (Z)-3,4,5-trimethoxy-3′-hydroxy-4′-ethoxydiphenylethylene], the IC50 worked out at 0.8 nM in series [2] (Homo sapiens, 48 h); 160 nM in series [3] (48 h); 63 nM with Liver cancer Bel-7402 (Homo sapiens, Bel-7402, 48 h); 0.25 nM in the series on Gastric cancer SGC-7901 (Homo sapiens, SGC-7901, 48 h); 0.28 nM in series [4] (Homo sapiens, HT-29, 48 h).
`CCOc1ccc(/C=C\c2cc(OC)c(OC)c(OC)c2)cc1NC(=O)CN.Cl` [ECA4GN hydrochloride, (Z)-3,4,5-trimethoxy-3′-glycylamino-4′-ethoxydiphenylethane] had an LD50 in the series on Kunming mice of 912 mg/kg. In addition, the “Tumor-inhibiting rate (%)” value in series [1] (25 mg/kg intravenously) stood at 39%; in series [1] (50 mg/kg intravenously, listed as ECA4GN hydrochlonde) it was 64%. The “tumor volume observation” value in series [1] is recorded as “tendency of tumor shrinkage”.
Consider `CCOc1ccc(/C=C\c2cc(OC)c(OC)c(OC)c2)cc1N` [ECA4N, (Z)-3,4,5-trimethoxy-3′-amino-4′-ethoxydiphenylethylene], for which the IC50 in series [2] (Homo sapiens, 48 h) is 0.76 nM; in series [3] (48 h) it was 100 nM; with Liver cancer Bel-7402 (Homo sapiens, Bel-7402, 48 h) it was 39 nM; in the series with Gastric cancer SGC-7901 (Homo sapiens, SGC-7901, 48 h), 0.19 nM; in series [4] (Homo sapiens, HT-29, 48 h), 0.15 nM.
`CCOc1ccc(/C=C\c2cc(OC)c(OC)c(OC)c2)cc1OP(=O)([O-])[O-].[Na+].[Na+]` [ECA4P, (Z)-3,4,5-trimethoxy-4′-ethoxydiphenylethylene-3′-o-disodium phosphate salt]: the LD50 in the series on Kunming mice stood at 906 mg/kg. The “Tumor-inhibiting rate (%)” value in series [1] (25 mg/kg intravenously) is on record as 43%. Moreover, the “tumor volume observation” value in series [1] was “tendency of tumor shrinkage”.
As to `CCOc1ccc(CCc2cc(OC)c(OC)c(OC)c2)cc1O` [ECB1, 3,4,5-trimethoxy-3′-hydroxy-4′-ethoxydiphenylethane], the IC50 in series [2] (48 hours, SRB, read-out: IC50) came out at 0.75 nM; in series [3] (setting [5]), 170 nM; in the series on Liver cancer Bel-7402 (setting [6]), 57 nM; in the series with Gastric cancer SGC-7901 (setting [7]), 0.28 nM; in series [4] (setting [8]), 0.34 nM. Also, the “times stronger than positive control CB1” value in series [4] is reported as “about 100 times”.
As for `CCOc1ccc(CCc2cc(OC)c(OC)c(OC)c2)cc1N` [ECB1N, 3,4,5-trimethoxy-3′-amino-4′-ethoxydiphenylethane], the IC50 in series [2] (48 hours, SRB, read-out: IC50) stood at 0.68 nM; in series [3] (setting [5]), 120 nM; in the series on Liver cancer Bel-7402 (setting [6]), 34 nM; in the series with Gastric cancer SGC-7901 (setting [7]), 0.15 nM; in series [4] (setting [8]), 0.18 nM. Further, in series [4], the “times stronger than positive control CB1” value is listed as “about 200 times”.
Take `CCOc1ccc(CCc2cc(OC)c(OC)c(OC)c2)cc1NC(=O)C(N)CO.Cl` (centres unmarked) [ECB1SN hydrochloride, 3,4,5-trimethoxy-3′-serylamino-4′-ethoxydiphenylethane]: in the series with Kunming mice, the “toxicity compared with positive controls” value is “toxicity lower than ethoxydiphenylethylene positive control compounds ECA4P and ECA4GN hydrochloride”; the LD50 amounted to 1185 mg/kg. The “Tumor-inhibiting rate (%)” value in series [1] (25 mg/kg intravenously) was found to be 45%. Besides, the “tumor volume observation” value in series [1] was “tendency of tumor shrinkage”.
As to “(Z)-3,4,5-trimethoxy-4′-methoxydiphenylethylene-3′-o-disodium phosphate salt [CA4P]”, the LD50 in the series with Kunming mice is reported as 1276 mg/kg. For the same compound, the “Tumor-inhibiting rate (%)” value in series [1] (50 mg/kg intravenously) turned out to be 28%.

One may read the LD50 as the dose at which mortality reaches 50%. The IC50 is the concentration that inhibits the measured activity by half.
